The nature of the data set: Solubility (physicochemical properties). The text has this:
The physicochemical properties of the thus obtained physiologically active substance sulphostin are shown below.
4) Solubility: soluble in water and insoluble in lower alcohol, acetone, ethyl acetate, hexane and petroleum ether.

One compound from patent US6214340A, “Physiologically active substance sulphostin, process for producing the same, and use thereof” (Zaidan Hojin Biseibutsu Kagaku Kenkyu Kai, priority 1997, dated 2001) can be followed below.

Take `NC1CCCN(P(N)(=O)NS(=O)(=O)O)C1=O` (centres unmarked) [sulphostin]: the Solubility result was “insoluble” (in lower alcohol, acetone, ethyl acetate, hexane and petroleum ether); “soluble” (in water).
